Reference: patent US12622918B2, “Formulations and dosages for administering a compound that inhibits MCL1 protein” (Amgen Inc., priority 2019, dated 2026)

Columns and labels:
[1] = tested on: subjects with relapsed/refractory multiple myeloma; experiment: Phase 1 FIH study, multiple myeloma part 1b (QW); assay type: in vivo, human
Procedure: In part 1a, subjects were enrolled across 8 cohorts, with doses ranging from 30 to 240 mg/m^2 QD2. In part 1b, subjects were enrolled across 2 cohorts, with doses of 120/180-mg/m^2 or 120/240-mg/m^2.

[2] = tested on: U937; experiment: Cell viability (CellTiterGlo), U937; assay type: cell-based; details: Homo sapiens, U-937; U937, NHL; 24 hours; 10% FBS; read-out: AMS 176 IC50
[3] = tested on: subjects with relapsed/refractory acute myelogenous leukemia; experiment: Phase 1 FIH study, acute myeloid leukemia part 3; assay type: in vivo, human
Procedure: In part 3, 10 total subjects were enrolled across 2 cohorts, with doses of 60 mg/m^2 or 120 mg/m^2.

[4] = tested on: dogs; experiment: 28-day GLP IV toxicology study in dogs; assay type: in vivo; details: dog
Description: The doses selected for the 28-day IV rat and dog toxicology studies were intended to characterize the toxicity of the compound of Formula I and provide data to support a starting dose in the first-in-human (FIH) study. An IV route of administration and a dosing schedule of 2 days on/5 days off was used to support the anticipated clinical route and dosing schedule.

[5] = tested on: MOLM-13; experiment: Cell viability (CellTiterGlo), MOLM-13; assay type: cell-based; details: Homo sapiens; MOLM-13, AML; 24 hours; 10% FBS; read-out: AMS 176 IC50
[6] = tested on: OPM2-Luc tumor xenografts; experiment: OPM2-Luc xenograft efficacy, once-weekly dosing; assay type: in vivo
Procedure: Female athymic nude mice were injected subcutaneously with 5×10^6 human OPM2-Luc multiple myeloma tumor cells. […] Tumor volume and body weight were measured twice per week through day 26. […] In the 50 mg/kg intraperitoneal group, 98% regression was observed (p<0.0001) (FIG. 6).

[7] = tested on: KMS-12-BM; experiment: Cell viability (CellTiterGlo), KMS-12-BM; assay type: cell-based; details: Homo sapiens, Multiple myeloma, 24 hours, 10% FBS, read-out: AMS 176 IC50
[8] = tested on: KMS-12-PE; experiment: Cell viability (CellTiterGlo), KMS-12-PE; assay type: cell-based; details: Homo sapiens, Multiple myeloma, 24 hours, 10% FBS, read-out: AMS 176 IC50
[9] = tested on: U26681; experiment: Cell viability (CellTiterGlo), U26681; assay type: cell-based; details: U26681, Multiple myeloma; 24 hours; 10% FBS; read-out: AMS 176 IC50
[10] = tested on: HL-60; experiment: Cell viability (CellTiterGlo), HL-60; assay type: cell-based; details: Homo sapiens; HL-60, AML; 24 hours; 10% FBS; read-out: AMS 176 IC50
[11] = Description: Nonclinical safety studies on the compound of Formula I consisted of an exploratory 14-day dog IV toxicology study, Good Laboratory Practices (GLP) 28-day rat and dog IV toxicology studies, in vitro exploratory genotoxicity studies (GLP human ether-á-go-go related gene [hERG] and non-GLP isolated rabbit heart) to characterize potential cardiovascular effects. The doses selected for the 28-day IV rat and dog toxicology studies were intended to characterize the toxicity of the compound of Formula I and provide data to support a starting dose in the first-in-human (FIH) study. An IV route of administration and a dosing schedule of 2 days on/5 days off was used to support the anticipated clinical route and dosing schedule. In a 28-day GLP rat IV infusion toxicology study, the severely toxic dose in 10% of animals (STD10) was 60 mg/kg based on mortality at 120 mg/kg and in a 28-day GLP IV toxicology study in dogs, the highest-nonseverely-toxic dose (HNSTD) was 10 mg/kg based on mortality at 20 mg/kg.
[12] = tested on: KMS26; experiment: Cell viability (CellTiterGlo), KMS26; assay type: cell-based; details: KMS-26; KMS26, Multiple myeloma; 24 hours; 10% FBS; read-out: AMS 176 IC50
[13] = tested on: MM1R; experiment: Cell viability (CellTiterGlo), MM1R; assay type: cell-based; details: MM.1R, Multiple myeloma, 24 hours, 10% FBS, read-out: AMS 176 IC50
[14] = tested on: BAK; experiment: BAK activation in OPM2-Luc tumor xenografts (PD); assay type: in vivo, mice; details: for BAK activation: 2-, vs vehicle p<0.05
Procedure: Activation of the pro-apoptotic pore-forming protein BAK and proteolytic cleavage of the cysteine-aspartic acid protease caspase 3 (hallmarks of the induction of apoptosis) in MCL1-dependent OPM2-Luc multiple myeloma tumor cells served as a PD assay. Female athymic nude mice were injected with 5×10^6 cells in 0.1 mL subcutaneously (SC). […] Mice were euthanized 2, 4, 8, 12, and 24 hours postdose (n=3/group), terminal plasma samples were collected for PK analysis, and tumors were halved and snap frozen in liquid nitrogen for PK and molecular analyses. Tumor lysates were prepared for evaluation of BAK activation and caspase 3 cleavage using an electrochemiluminescence immunoassay. Tumors treated with vehicle (25% HPβCD, pH 8) served as a negative control and indicated the baseline level of apoptosis.

[15] = tested on: Molm13-Luc orthotopic tumors; experiment: MOLM-13 Luc acute myeloid leukemia orthotopic model; assay type: in vivo; details: for TGI (tumor burden, whole body luminescence): female NSG mice
Procedure: On day 0, 70 female NSG mice were injected IV with 5×10^4 human Molm13-Luc AML tumor cells.

CO[C@H]1/C=C/C[C@H](C)[C@@H](C)S(=O)(=O)NC(=O)c2ccc3c(c2)N(C[C@@H]2CC[C@H]21)C[C@@]1(CCCc2cc(Cl)ccc21)CO3 [AMG 176]
Grade 3 adverse events, subjects ([1]; MM part 1b): 83% | adverse events considered related to AMG 176, subjects ([1]; MM part 1b): 83 %/a | adverse events leading to discontinuation of investigational product ([1]; MM part 1b): no adverse event led to discontinuation | fatal adverse events ([1]; MM part 1b): no fatal adverse events occurred | grade 4 adverse events, subjects ([1]; MM part 1b): 17% | hypertension of grade 3 or higher ([1]; MM part 1b): 33% | neutropenia of grade 3 or higher ([1]; MM part 1b): 67% | serious adverse events ([1]; MM part 1b): No serious adverse events were reported | adverse events, subjects ([1]; MM part 1b QW, 6 subjects): 83% | diarrhea, subjects ([1]; MM part 1b, any grade): 33% | fatigue, subjects ([1]; MM part 1b, any grade): 33% | hypertension, subjects ([1]; MM part 1b, any grade): 33% | nausea, subjects ([1]; MM part 1b, any grade): 50% | neutropenia, subjects ([1]; MM part 1b, any grade): 67% | exposures (Cmax and AUC) versus dose ([1]; MM part 1b, 6 subjects, preliminary): generally increased with increasing doses | IC50 [2]: 474 nM | Grade 3 adverse events, subjects ([3]; AML part 3): 70% | Serious adverse events, subjects ([3]; AML part 3): 60% | adverse events considered related to AMG 176, subjects ([3]; AML part 3): 40% | adverse events leading to discontinuation of investigational product, subjects ([3]; AML part 3): 20% | fatal adverse events ([3]; AML part 3): No fatal adverse events occurred | febrile neutropenia leading to discontinuation ([3]; AML part 3): 10% | grade 4 adverse events, subjects ([3]; AML part 3): 20% | related increased blood bilirubin ([3]; AML part 3): 20% | related nausea ([3]; AML part 3): 20% | superior vena cava syndrome leading to discontinuation ([3]; AML part 3): 10% | adverse events, subjects ([3]; AML part 3, 10 subjects): 80% | anemia, subjects ([3]; AML part 3, any grade): 20% | hypokalemia, subjects ([3]; AML part 3, any grade): 30% | hypomagnesemia, subjects ([3]; AML part 3, any grade): 20% | increased blood bilirubin, subjects ([3]; AML part 3, any grade): 20% | nausea, subjects ([3]; AML part 3, any grade): 30% | peripheral edema, subjects ([3]; AML part 3, any grade): 30% | pyrexia, subjects ([3]; AML part 3, any grade): 20% | vomiting, subjects ([3]; AML part 3, any grade): 20% | anemia of grade 3 or higher ([3]; AML part 3, both cohorts combined): 20% | exposures (Cmax and AUC) versus dose ([3]; AML, 10 subjects, 60 or 120 mg/m^2, preliminary): generally increased with increasing doses | finding related to morbidity and mortality [4]: mucosal epithelial degeneration in the small and large intestines | dose with mortality ([4]; IV, 28-day): 20 mg/kg | highest-nonseverely-toxic dose (HNSTD) ([4]; IV, 2 days on/5 days off, 28-day): 10 mg/kg | IC50 [5]: 241 nM | tumor regression ([6]; 50 mg/kg intraperitoneally once per week): 98% | TGI ([6]; 50 mg/kg orally once per week): 97% | animals tumor free ([6]; 100 mg/kg once per week, day 26): Five out of 10 | tumor growth inhibition (TGI) ([6]; 100 mg/kg once-weekly oral, as stated in summary b107): 70% | tumor regression ([6]; 100 mg/kg orally once per week): 70% | overt toxicity by changes in body weight ([6]; once-weekly dosing groups): No evidence of overt toxicity | IC50 [7]: 15 nM | IC50 [8]: 131 nM | IC50 [9]: 8220 nM | IC50 [10]: 110 nM | genotoxicity [11]: not mutagenic or clastogenic | IC50 [12]: 248 nM | IC50 [13]: 1140 nM | BAK activation ([14]; 30 mg/kg oral gavage, 4-, and 8-hour time points): Statistically significant BAK activation | time point of greatest BAK activation ([14]; 60 mg/kg oral gavage): 4 h | BAK activation ([14]; 60 mg/kg oral gavage, 4-, 8-, and 12-hour time points): Statistically significant BAK activation | induction of multiple markers of apoptosis, including BAK activation and caspase 3 cleavage ([14]; OPM2-Luc tumor xenografts, summary statement): dose-dependent induction | TGI (tumor burden, whole body luminescence) ([15]; 30 mg/kg oral QD2): 28% | TGI (tumor burden, whole body luminescence) ([15]; 60 mg/kg oral QD2): 69% | TGI (tumor burden, whole body luminescence) ([15]; 100 mg/kg oral QD): 86% | overt toxicity by changes in body weight ([15]; all AMG 176 groups): No evidence of overt toxicity
